For eight cell lines, relative viability results are on record in the supplement of paper PMC10307832.

Holding throughout (assay): relative viability (nuclei count vs DMSO), 5 days (fraction); higher = more cells survive
Compound in assay [1]: CCOC1=CC=CC=C1N=NC2=C(NN(C2=O)C3=NC(=CS3)C4=CC=CC=C4)C [BAM7] + COc1cccc2cc(-c3nc([C@H]4CC[C@H](C(=O)O)CC4)n4ncnc(N)c34)[nH]c12 [OSI-027] (partner 0.5 µM)
The method, boiled down:
(§1)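 Dosing by pin tool came one day after lung cancer cell lines were seeded in 1536-well plates, using either one drug or a fixed anchor-drug dose plus five library-drug doses (not always all listed) in √10 steps. After 5 days, nuclei were counted on 4× images. Relative viability is treated-well nuclei count divided by vehicle-well nuclei count, and values are medians of duplicate plates.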

Compound in assay [2]: CCOC1=CC=CC=C1N=NC2=C(NN(C2=O)C3=NC(=CS3)C4=CC=CC=C4)C [BAM7] + Cc1cc(Nc2cc(N3CCN(C)CC3)nc(Sc3ccc(NC(=O)C4CC4)cc3)n2)n[nH]1 [Tozasertib] (partner 0.1 µM)
An outline of the steps:
as §1

Compound in assay [3]: CCOC1=CC=CC=C1N=NC2=C(NN(C2=O)C3=NC(=CS3)C4=CC=CC=C4)C [BAM7] + NC(=O)Nc1cc(-c2cccc(F)c2)sc1C(=O)N[C@H]1CCCNC1 [AZD7762] (partner 0.2 µM)
An outline of the steps:
as §1

Compound in assay [4]: CCn1c(-c2nonc2N)nc2c(C#CC(C)(C)O)ncc(OC[C@H]3CCCNC3)c21 + Cc1nc(NC(=O)N2CCC[C@H]2C(N)=O)sc1-c1ccnc(C(C)(C)C(F)(F)F)c1 [Alpelisib] (partner 2 µM)
The method, boiled down:
as §1

As for LXF-289, the relative viability in assay [1] (first compound 0.5 µM) was determined as 0.923; in assay [1] (first compound 5 µM), 0.909; in assay [1] (first compound 15.81 µM), 0.761; in assay [1] (first compound 50 µM), 0.802; in assay [2] (first compound 0.5 µM) it was 0.206; in assay [2] (first compound 5 µM), 0.215. The relative viability in assay [2] (first compound 15.81 µM) was determined as 0.183; in assay [2] (first compound 50 µM) it was 0.19; in assay [3] (first compound 0.5 µM), 1.12; in assay [3] (first compound 5 µM), 1.17; in assay [3] (first compound 15.81 µM), 1.13; in assay [3] (first compound 50 µM) it was 1.04. The relative viability in assay [4] (first compound 0.01 µM) was determined as 1.04; in assay [4] (first compound 0.03162 µM) it was 1.02; in assay [4] (first compound 0.1 µM), 1.01; in assay [4] (first compound 0.3162 µM), 0.983; in assay [4] (first compound 1 µM) it was 1.04.
In the case of ABC-1, the relative viability was 0.491 in assay [1] (first compound 0.5 µM); 0.504 in assay [1] (first compound 5 µM); 0.474 in assay [1] (first compound 15.81 µM); 0.593 in assay [1] (first compound 50 µM); 0.164 in assay [2] (first compound 0.5 µM); 0.162 in assay [2] (first compound 5 µM). Further, the relative viability in assay [2] (first compound 15.81 µM) was 0.183; in assay [2] (first compound 50 µM), 0.227; in assay [3] (first compound 0.5 µM), 0.755; in assay [3] (first compound 5 µM), 1.29; in assay [3] (first compound 15.81 µM), 0.863; in assay [3] (first compound 50 µM) it was 0.783. In addition, the relative viability is 0.849 in assay [4] (first compound 0.01 µM); 0.961 in assay [4] (first compound 0.03162 µM); 1.09 in assay [4] (first compound 0.1 µM); 0.881 in assay [4] (first compound 0.3162 µM); 0.715 in assay [4] (first compound 1 µM).
As to NCI-H650, the relative viability amounted to 0.505 in assay [1] (first compound 0.5 µM); 0.591 in assay [1] (first compound 5 µM); 0.493 in assay [1] (first compound 15.81 µM); 0.589 in assay [1] (first compound 50 µM); 0.803 in assay [2] (first compound 0.5 µM); 0.861 in assay [2] (first compound 5 µM). In addition, the relative viability in assay [2] (first compound 15.81 µM) is 0.702; in assay [2] (first compound 50 µM), 0.796; in assay [3] (first compound 0.5 µM), 0.913; in assay [3] (first compound 5 µM), 0.992; in assay [3] (first compound 15.81 µM), 1.01; in assay [3] (first compound 50 µM) it was 1.15. Besides, the relative viability amounted to 1.1 in assay [4] (first compound 0.01 µM); 1.21 in assay [4] (first compound 0.03162 µM); 1.02 in assay [4] (first compound 0.1 µM); 1.04 in assay [4] (first compound 0.3162 µM); 1.24 in assay [4] (first compound 1 µM).
Take NCI-H2085: the relative viability in assay [1] (first compound 0.5 µM) is 0.733; in assay [1] (first compound 5 µM), 0.571; in assay [1] (first compound 15.81 µM) it was 0.52; in assay [1] (first compound 50 µM) it was 0.678; in assay [2] (first compound 0.5 µM) it was 0.608; in assay [2] (first compound 5 µM) it was 0.496. Further, the relative viability in assay [2] (first compound 15.81 µM) was determined as 0.401; in assay [2] (first compound 50 µM) it was 0.567; in assay [3] (first compound 0.5 µM), 0.967; in assay [3] (first compound 5 µM), 0.709; in assay [3] (first compound 15.81 µM) it was 0.915; in assay [3] (first compound 50 µM) it was 0.991. The relative viability stood at 0.974 in assay [4] (first compound 0.01 µM); 0.866 in assay [4] (first compound 0.03162 µM); 0.988 in assay [4] (first compound 0.1 µM); 0.865 in assay [4] (first compound 0.3162 µM); 0.84 in assay [4] (first compound 1 µM).
On to NCI-H1793, for which the relative viability is 0.271 in assay [1] (first compound 0.5 µM); 0.267 in assay [1] (first compound 5 µM); 0.25 in assay [1] (first compound 15.81 µM); 0.233 in assay [1] (first compound 50 µM); 0.274 in assay [2] (first compound 0.5 µM); 0.269 in assay [2] (first compound 5 µM). Further, the relative viability in assay [2] (first compound 15.81 µM) is 0.223; in assay [2] (first compound 50 µM), 0.262; in assay [3] (first compound 0.5 µM), 0.544; in assay [3] (first compound 5 µM), 0.341; in assay [3] (first compound 15.81 µM), 0.428; in assay [3] (first compound 50 µM), 0.426. Besides, the relative viability in assay [4] (first compound 0.01 µM) worked out at 0.815; in assay [4] (first compound 0.03162 µM), 0.812; in assay [4] (first compound 0.1 µM), 0.508; in assay [4] (first compound 0.3162 µM), 0.592; in assay [4] (first compound 1 µM), 0.64.
As to LC-2-ad, the relative viability in assay [1] (first compound 0.5 µM) turned out to be 0.918; in assay [1] (first compound 5 µM), 0.865; in assay [1] (first compound 15.81 µM) it was 0.8; in assay [1] (first compound 50 µM), 0.902; in assay [2] (first compound 0.5 µM), 0.501; in assay [2] (first compound 5 µM), 0.424. In addition, the relative viability in assay [2] (first compound 15.81 µM) was 0.466; in assay [2] (first compound 50 µM), 0.451; in assay [3] (first compound 0.5 µM), 0.916; in assay [3] (first compound 5 µM), 0.832; in assay [3] (first compound 15.81 µM), 0.832; in assay [3] (first compound 50 µM) it was 0.805. Besides, the relative viability in assay [4] (first compound 0.01 µM) was determined as 0.898; in assay [4] (first compound 0.03162 µM), 0.973; in assay [4] (first compound 0.1 µM), 0.925; in assay [4] (first compound 0.3162 µM), 0.823; in assay [4] (first compound 1 µM) it was 0.565.
As for NCI-H1355, the relative viability stood at 0.441 in assay [1] (first compound 0.5 µM); 0.374 in assay [1] (first compound 5 µM); 0.385 in assay [1] (first compound 15.81 µM); 0.395 in assay [1] (first compound 50 µM); 0.515 in assay [2] (first compound 0.5 µM); 0.461 in assay [2] (first compound 5 µM). In addition, the relative viability in assay [2] (first compound 15.81 µM) stood at 0.361; in assay [2] (first compound 50 µM) it was 0.459; in assay [3] (first compound 0.5 µM), 0.654; in assay [3] (first compound 5 µM), 0.66; in assay [3] (first compound 15.81 µM), 0.68; in assay [3] (first compound 50 µM), 0.697. In addition, the relative viability in assay [4] (first compound 0.01 µM) amounted to 0.863; in assay [4] (first compound 0.03162 µM) it was 0.732; in assay [4] (first compound 0.1 µM) it was 0.786; in assay [4] (first compound 0.3162 µM) it was 0.825; in assay [4] (first compound 1 µM), 0.82.
For H3255, the relative viability stood at 0.593 in assay [1] (first compound 0.5 µM); 0.622 in assay [1] (first compound 5 µM); 0.443 in assay [1] (first compound 15.81 µM); 0.568 in assay [1] (first compound 50 µM); 0.652 in assay [2] (first compound 0.5 µM); 0.757 in assay [2] (first compound 5 µM). Besides, the relative viability in assay [2] (first compound 15.81 µM) turned out to be 0.376; in assay [2] (first compound 50 µM), 0.497; in assay [3] (first compound 0.5 µM) it was 0.831; in assay [3] (first compound 5 µM) it was 0.838; in assay [3] (first compound 15.81 µM), 0.73; in assay [3] (first compound 50 µM) it was 0.847. For the same cell line, the relative viability turned out to be 0.659 in assay [4] (first compound 0.01 µM); 0.705 in assay [4] (first compound 0.03162 µM); 0.692 in assay [4] (first compound 0.1 µM); 0.562 in assay [4] (first compound 0.3162 µM); 0.607 in assay [4] (first compound 1 µM).
